{
  "source": "paper PMC5460155",
  "about": "(ACS chemical neuroscience, 2017)",
  "key": {"[1]": {"test_system": "mice", "settings": "cited from earlier work"}, "[2]": {"test_system": "SD rats", "assay": "Amphetamine-induced hyperlocomotion in rats", "format": "in vivo, rat", "settings": "30 mg/kg i.p., amphetamine 1 mg/kg s.c."}, "[3]": {"test_system": "mice", "assay": "Amphetamine-induced hyperlocomotion in mice", "format": "in vivo, mouse", "settings": "1–10 mg/kg i.p., amphetamine 3 mg/kg s.c."}, "[4]": {"molecular_target": "T1, hM1 (Homo sapiens, UniProt P11229)", "T1 sequence (P11229 1-460)": "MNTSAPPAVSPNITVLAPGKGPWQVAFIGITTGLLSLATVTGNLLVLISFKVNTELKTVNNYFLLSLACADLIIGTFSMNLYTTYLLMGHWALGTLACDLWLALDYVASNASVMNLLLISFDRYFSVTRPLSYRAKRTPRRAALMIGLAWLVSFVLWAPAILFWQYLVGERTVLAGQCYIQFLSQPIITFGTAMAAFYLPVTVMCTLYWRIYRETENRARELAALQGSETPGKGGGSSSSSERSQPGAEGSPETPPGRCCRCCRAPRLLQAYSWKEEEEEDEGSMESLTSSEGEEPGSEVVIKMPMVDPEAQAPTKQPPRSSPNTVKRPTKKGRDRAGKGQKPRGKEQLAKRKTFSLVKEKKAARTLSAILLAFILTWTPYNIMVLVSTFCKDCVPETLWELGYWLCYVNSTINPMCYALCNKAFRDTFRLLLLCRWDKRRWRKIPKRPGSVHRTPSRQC", "assay": "Acetylcholine affinity shift at hM1", "format": "binding"}, "[5]": {"assay": "Mouse brain:plasma partition, discrete i.p. dose", "settings": "male, C57BL/6J, in vivo, ip, 10 mg/kg"}, "[6]": {"test_system": "C57Bl/6 mice", "assay": "Spontaneous locomotor activity", "format": "in vivo, mouse", "settings": "1–10 mg/kg i.p."}, "[7]": {"molecular_target": "T2, M1 (Homo sapiens, UniProt P11229)", "T2 sequence (P11229 1-460)": "T1 sequence (P11229 1-460)", "assay": "Discover X bias panel: β-arrestin recruitment assay", "format": "cell-based"}, "[8]": {"molecular_target": "T3, mouse M1 (Mus musculus, UniProt P12657)", "T3 sequence (P12657 1-460)": "T1 sequence (P11229 1-460) with A5V, T254S, R320K, A337G, I413V", "assay": "Calcium mobilization, mM1-CHO cells, PAM mode", "format": "cell-based"}, "[9]": {"molecular_target": "T2, M1", "assay": "Discover X bias panel: M1 receptor internalization", "format": "cell-based"}, "[10]": {"test_system": "mice", "assay": "Modified Irwin Toxicology Battery", "format": "in vivo", "settings": "100 mg/kg i.p."}, "[11]": {"test_system": "68 GPCRs, ion channels, and transporters", "assay": "Eurofin Lead Profiling radioligand binding panel", "settings": "10 μM, 68 targets"}, "[12]": {"molecular_target": "T2, M1", "assay": "Calcium mobilization, hM1-CHO cells, agonist mode", "format": "cell-based"}, "[13]": {"molecular_target": "T3, mouse M1", "assay": "Mouse M1 agonist activity, calcium mobilization", "format": "cell-based"}, "[14]": {"molecular_target": "T4, rat M1 (Rattus norvegicus, UniProt P08482)", "T4 sequence (P08482 1-460)": "T1 sequence (P11229 1-460) with A5V, T254S, P309S, R320K, A337G, I413V", "assay": "Calcium mobilization, rM1-CHO cells, agonist mode", "format": "cell-based"}, "[15]": {"molecular_target": "T4, rat M1", "assay": "Calcium mobilization, rM1-CHO cells, PAM mode", "format": "cell-based", "settings": "EC20 acetylcholine"}, "[16]": {"test_system": "rats", "assay": "Novel object recognition task", "format": "in vivo, rat", "settings": "rats, 1, 3, and 10 mg/kg i.p., 30 min pretreatment, assessed 24 h later"}, "[17]": {"molecular_target": "T2, M1", "assay": "Calcium mobilization, hM1-CHO cells, PAM mode", "format": "cell-based"}, "[18]": {"assay": "Mouse brain concentrations after i.p. dosing", "format": "in vivo", "settings": "100 mg/kg i.p., mice"}, "[19]": {"test_system": "C57Bl/6 mice", "assay": "Behavioral convulsions, modified Racine scale", "format": "in vivo, mouse", "settings": "100 mg/kg i.p., 3 h, modified Racine scale (0–5)"}, "[20]": {"molecular_target": "T2, M1", "assay": "[3H]-NMS competition binding, human M1 membranes"}},
  "note": "Substitutions are numbered along the chain they refer to. “Also recorded” adds a separate entry of the source.",
  "data": [
    {"smiles": "CCCCCCOc1nsnc1C1=CCCN(C)C1", "note": "[xanomeline]", "values": [
      {"measurement": "attenuation of amphetamine-induced activity in M4 knockout mice", "setting": "[1]", "value": "absent"}
    ]},
    {"smiles": "Cn1cc(-c2ccc(Cn3cc(C(=O)N[C@H]4CCCC[C@@H]4O)c4c(F)cc(F)cc43)cn2)cn1", "note": "[Compound 28a, 4,6-Difluoro-N-(1S,2S)-2-hydroxycyclohexyl-1-((6-(1-methyl-1H-pyrazol-4-yl)pyridine-3-yl)methyl)-1H-indole-3-carboxamide]", "values": [
      {"measurement": "reversal of amphetamine-induced hyperlocomotion (AHL)", "setting": "[2]", "value": "no effect"},
      {"measurement": "reversal of amphetamine-induced hyperlocomotion (AHL)", "setting": "[3]", "value": "did not reverse AHL in mice"},
      {"measurement": "fold shift in ACh potency vs DMSO control", "setting": "[4]; 0.3 μM PAM", "value": 11, "unit": "fold"},
      {"measurement": "fold shift in ACh potency vs DMSO control", "setting": "[4]; 1.0 μM PAM", "value": 58, "unit": "fold"},
      {"measurement": "fold shift in ACh potency vs DMSO control", "setting": "[4]; 10 μM PAM", "value": 178, "unit": "fold"},
      {"measurement": "Kp at 0.25 h", "setting": "[5]", "value": 4.84},
      {"measurement": "Kp uu at 0.25 h", "setting": "[5]", "value": 2.61},
      {"measurement": "effect on spontaneous (basal) locomotor activity", "setting": "[6]", "value": "significantly less effect on spontaneous locomotor activity"},
      {"measurement": "effect on spontaneous (basal) locomotor activity", "setting": "[6]; listed as VU6004256", "value": "decreased locomotor activity at the highest dose of 10 mg/kg"},
      {"measurement": "M1 PAM potency and efficacy in β-arrestin recruitment", "setting": "[7]", "value": "comparable M1 PAM potency and efficacy"},
      {"measurement": "EC50", "setting": "[8]", "value": 155, "unit": "nM"},
      {"measurement": "mACh Max (%)", "setting": "[8]; PAM mode, mM1-CHO cells, EC20 acetylcholine, ± SEM", "value": "79 ± 1", "unit": "%"},
      {"measurement": "EC50", "setting": "[9]", "value": "> 10000", "unit": "nM"},
      {"measurement": "adverse effects, Modified Irwin Toxicology Battery", "setting": "[10]; 100 mg/kg", "value": "no pronounced cholinergic effects"},
      {"measurement": "adverse effects, Modified Irwin Toxicology Battery", "setting": "[10]; listed as VU6004256, 100 mg/kg", "value": "did not cause significant observable adverse effects"},
      {"measurement": "percent inhibition in ancillary pharmacology panel", "setting": "[11]", "value": "≤ 50", "unit": "%"},
      {"measurement": "hACh Max (%), agonist", "setting": "[12]; hM1-CHO cells, ± SEM", "value": "56 ± 14", "unit": "%"},
      {"measurement": "EC50", "setting": "[12]; hM1 EC50 (μM), agonist, hM1-CHO cells", "value": 4.8, "unit": "µM"},
      {"measurement": "EC50", "setting": "[12]; hM1 pEC50, agonist, hM1-CHO cells, ± SEM", "value": 4.68, "unit": "µM"},
      {"measurement": "fold weaker M1 agonist than 16", "setting": "[12]; human and rat M1", "value": 7, "unit": "fold"},
      {"measurement": "EC50", "setting": "[13]", "value": 450, "unit": "nM"},
      {"measurement": "mouse M1 agonist % ACh Max", "setting": "[13]; agonist activity at mouse M1", "value": 86, "unit": "%"},
      {"measurement": "EC50", "setting": "[14]", "value": 3980, "unit": "nM"},
      {"measurement": "rACh Max (%), agonist", "setting": "[14]; agonist mode, rM1-CHO cells, ± SEM", "value": "68 ± 9", "unit": "%"},
      {"measurement": "rACh Max (%)", "setting": "[15]; PAM mode, ± SEM", "value": "92 ± 4", "unit": "%"},
      {"measurement": "EC50", "setting": "[15]; rM1 EC50 (nM), PAM mode", "value": 141, "unit": "nM"},
      {"measurement": "EC50", "setting": "[15]; rM1 pEC50, PAM mode, ± SEM", "value": 138, "unit": "nM"},
      {"measurement": "recognition memory, novel object recognition", "setting": "[16]", "value": "dose-dependently enhanced recognition memory"},
      {"measurement": "EC50", "setting": "[17]", "value": 214, "unit": "nM"},
      {"measurement": "hACh Max (%)", "setting": "[17]; PAM mode, hM1-CHO cells, EC20 acetylcholine, ± SEM", "value": "86±1", "unit": "%"},
      {"measurement": "total maximum brain concentration", "setting": "[18]", "value": 49.9, "unit": "µM"},
      {"measurement": "unbound maximum brain concentration", "setting": "[18]", "value": 649, "unit": "nM"},
      {"measurement": "behavioral convulsions", "setting": "[19]", "value": "did not display observable behavioral seizure activity; also recorded: neither difluoro indole 28a nor 28c (both regioisomeric N-Me pyrazoles) induced behavioral convulsions"},
      {"measurement": "displacement of orthosteric radioligand [3H]-NMS", "setting": "[20]", "value": "slight inhibition of binding of the orthosteric radioligand at high concentrations; also recorded: weakly displaced"}
    ]}
  ]
}
